Results on one compound are retold here after patent US11147790B2, “Treatment of cutaneous disorders” (Verrica Pharmaceuticals Inc., priority 2017, dated 2021).

The series in a line: Phase II clinical trial, systemic exposure evaluation (plasma concentration of cantharidin) after topical application to Molluscum contagiosum lesions. The series is classed as in vivo, human. How it is done:
This example describes pharmacokinetic results from a Phase II clinical trial for the treatment of skin lesion resulting from Molluscum contagiosum. Patients received administrations of the cantharidin composition in Table 9 to Molluscum contagiosum lesions every 21 days for a maximum of 4 sessions or until complete clearance. Blood samples for systemic exposure evaluation were collected on Day 1, prior to the drug application, and 2 (+30 minutes), 6 (+1 hour) and 24 (±3 hours) hours post-application. The average age of the subjects was 7±3.5 years. The average body weight of the subjects was 58±34.6 lb. The average number of lesions per subject was 43.7±24.2.
The plasma concentration of cantharidin for all subjects was less than 3.3 ng/ml at all times sampled.

Where “and” joins values, the source holds several entries; their conditions need not be identical. Equal values may be shown once.

In the case of `C[C@@]12C(=O)OC(=O)[C@]1(C)[C@H]1CC[C@@H]2O1` [cantharidin], the “plasma concentration of cantharidin for all subjects at all times sampled” value (all seventeen subjects, 2, 6 and 24 hours post-application, composition of Table 9, topical) is given as “less than 3.3 ng/ml”. Further, the “Exposure” value (plasma cantharidin per individual subject, cantharidin composition of Table 9 applied topically to Molluscum contagiosum lesions, blood collected Day 1 at 2, 6 and 24 hours post-application, lower limit of quantification 2.5 ng/ml) was <2.5 ng/ml (16×) and 3.3 ng/ml. Also, the “plasma concentration of cantharidin below the lower limit of quantification” value (subjects as young as 2 years old, having over 100 lesions, having genital lesions, with as many as 2.26 lesions per lb, LLOQ 2.5 ng/ml, only one of seventeen subjects above LLOQ) is under 2.5 ng/mL.
